Reference: patent US20070110734A9, “Methods and compositions using cellular asialodeterminants and glycoconjugates for targeting cells to tissues and organs” (Department of Veterans Affairs, Rehabilitation R&D Service, priority 2002, published 2007)
Blank lines part the entries; values can stand above or below the substance they belong to.

Assays:
[1] = test system: HEPG2 (ASGPR+); assay: Adherence of NK/LAK activity to HEPG2 monolayers at 23° C; type: cell-based, human
Experimental: (§1) This experiment is the same as above, except that the adherence to monolayers was performed at 23° C. and not 4° C., for 2 hours. Two monolayers were used: HEPG2, an ASGPR+ cell line, and CAKI-2 (human renal cell carcinoma), an ASGPR− cell line. The effector cell populations that were used were: an untreated 3-day old LAK preparation (LAK) and the same population treated with Vibrio cholera neuraminidase (LAK/NS) (30 mU/1×10^7 cells/200 μl). The neuraminidase-treated population was the asialopositive lymphocyte control. All cell populations regardless of treatment were greater than 90% viable at the time of assay. Each type of effector population was incubated with media alone, 200 μg/ml ASF or F, as controls. All effectors were assayed on RAJI (LAK-sensitive target; NK-insensitive target) or K562 (NK/LAK-sensitive target); the E:T ratios and the graphic presentation are the same above.
(§2) Five-day LAK preparations (20 U/ml; 1 Dupont unit=44.5 BRMP units) grown in AIM-V (Gibco) were treated (according to the protocols in B. 1.2.3 & 1.2.4) with 3 OmU Vibric Cholera neuramindase, 0.48 mU 2,3-or 10 mu 2,6-silalyltransferase per 107 cells. Some of the effectors were incubated in media, 10% PBS in RPMJ 1640 at 23° C. for 2 hours. 2×107 effectors from the untreated LALK, neuramithdase-treated LAK, LAK treated with 2,3 or 2,6 were suspended in 15 ml media and placed onto either HEPG2 (ASGPR+) or CAKI-2 (ASGPR−) monolayers at 23° C. for 2 hours. The flasks were rocked every 15 minutes. The nonadherent cells from these monolayers were decanted and assayed against K562 and RAJI, in addition to the unadhered controls. The E:T ratios used were 40, 20, 10, and 5 to 1.

[2] = test system: CAKI-2 (ASGPR−); assay: Adherence of NK/LAK activity to CAKI-2 monolayers at 23° C; type: cell-based, human
Experimental: as §1, §2

[3] = test system: RAJI (LAK-sensitive target; NK-insensitive target); assay: Cytotoxic capacity of LAK effectors in 51Cr-release assay on RAJI; type: cell-based, human; conditions: for LAK activity (killing of RAJI) after enzyme treatment of effector cell surface: enzyme-treated LAK cells
Experimental: Control cells (no IL-2 treatment) or LAK cells (IL-2-treated human peripheral blood lymphocytes cultured 10U IL-2/ml for 3 days) were adhered to a monolayer of HEP G2 cells for 2 hours at 4° C. The monolayer was pretreated either with asialofetuin (ASF, 200 μg/ml) in media or with fetuin (F, control, 200 μg/ml)) in media. After the Control or LAK cells had been incubated on the monolayer, these cells were then decanted, washed, and tested for cytotoxic capacity in a ^51Cr-release assay against the NK-resistant target, Raji.
as §1, §2

[4] = test system: K562 (NK/LAK-sensitive target); assay: Cytotoxic capacity of IL-2 activated NK effectors in 51Cr-release assay on K562; type: cell-based, human
Experimental: as §1, §2

[5] = test system: human CD34+ (hCD34+) peripheral blood stem cells; assay: In vivo trafficking of 111In-labeled human CD34+ stem cells (HSC) after glycoprotein infusion, gamma camera imaging; set-up: species or system NOD-SCID mice; conditions: for organ localization of infused hematopoietic (CD34+) stem cells, in words: cells preceded by infusion of the protein, jugular vein, immunodeficient mice
Experimental: Intravenous cannulas were placed into the external jugular vein of NOD-SCID mice under anesthesia (Institutional Animal Care and Use Committee protocol #AM87046-07) to enable the efficient delivery of ^111In-labeled stem cells i.v. Tylenol elixir was administered by mouth after recovery from anesthesia. Briefly radiolabeled CD34+ cells were taken up in 100-250 ul of 5% human plasma albumin in saline and injected into the cannula and then flushed with 50 ul of the albumin-saline. The mice were imaged by nuclear medicine.
Mice: NOD-SCID, female mice (Nonobese diabetic/LtSz-scid/scid) were obtained from the Jackson Laboratory, Bar Harbor, Me. at 1-2 months of age. These animals were maintained in microisolator cages in a special isolator room. The air was HEPA filtered, and the animals were changed in a laminar flow hood within the facility. All food, bedding, and water was sterilized. […] See, e.g. Hogan, et al., Biology of Blood & Marrow Transplantation 3:236-246 (1997); Noort, et al., Bone Marrow Transplantation 22 Suppl 1:S58-60 (1998).
(§3) ^111Indium Oxine Labeling Procedure: ^111In-oxine labeling of adult human CD34+ or mesenchymal stem cells (hMSCs) was performed using a modification of the Amersham Healthcare Procedure for labeling autologous leukocytes.
(§4) Imaging procedures: Nuclear Medicine. NOD-SCID mice were anesthetized using rodent anesthesia cocktail. Once anesthetized, the mice were placed on a foam hemi-cylindrical mouse positioning device (MPD) and covered with a tube sock. The MPD allows better visual separation of the lungs and liver as compared to placing the mouse on a flat surface. The foam on which the mouse was placed, and the tube sock covering maintained a comfortable temperature permitting longer imaging without additional anesthesia. The MPD was placed on a narrow table between the dual heads of a Siemens E.Cam Gamma Camera and imaged statically or dynamically in 2-D or SPECT. ^57Co-Spot Marker is used to mark anatomic positions (nose, tail, cannula, etc.). The data was analyzed using a Siemens ICON system for regions of interest or percent of injected dose (e.g. liver, spleen, heart).
(§5) Gamma camera imaging using a Siemens E. Cam dual head gamma camera monitored the in vivo trafficking patterns of all human stem cells described in the following examples. Mice were placed on a Mouse Positioning Device (MPD) and placed between the detectors on the imaging platform.
5.75×10^6 111In-labeled human CD34+ (hCD34+) peripheral blood stem cells were administered intravenously (i.v.) via an external jugular vein cannula to 2 month old, NOD-SCID, female mice (Non-obese diabetic/LtSz-scid/scid) obtained from the Jackson Laboratory, Bar Harbor, Me. The radiolabeled CD34+ stem cells were administered after pretreatment of the mouse with 3.3 mg of asialoorosomucoid (ASO) i.v. The in vivo trafficking patterns were followed by gamma camera imaging using a Siemens E.Cam dual head gamma camera from immediately after injection up to 36 hr postinfusion. Human CD34+ were isolated from apheresis stem cell collection products derived from deceased cancer patients. They were purified to 95-99% purity using antibody conjugated to CD34 conjugated to magnetics beads (MACS) separation columns; Miltenyi Biotec, Auburn, Calif. and cryopreserved.
5.75×10^6 111In-labeled human CD34+ (hCD34+) peripheral blood stem cells were administered intravenously (i.v.) via an external jugular vein cannula to 2 month old, NOD-SCID, female mice (Non-obese diabetic/LtSz-scid/scid) obtained from the Jackson Laboratory, Bar Harbor, Me. The radiolabeled CD34+ stem cells were administered after pretreatment of the mouse with 5.5 mg of orosomucoid (O) i.v.
The preparation and procedures set forth in Example I were repeated. […]

[6] = test system: human mesenchymal stem cells (MSC); assay: In vivo trafficking of 111In-labeled human mesenchymal stem cells (MSC) after glycoprotein infusion, gamma camera imaging; set-up: species or system NOD-SCID mice; conditions: for % Infused Cells in Liver/Spleen: 0.56×10^6 MSC preceded by 4.3 mg ASO followed by 5.5 mg orosomucoid i.v.
Experimental: Human mesenchymal stem cells (hMSCs; PT-2501) obtained through a FDA monitored paid bone marrow donor program were purchased from Poietics Technologies, BioWhittaker (Walkerville, Md.). The cells were thawed according to manufacturer recommendations, resuspended, and radiolabeled in Mesenchymal Stem Cell Basal Medium (MSCBM).
as §3, §4, §5
MSC were obtained from BioWhittaker, (Poietics Division, cryopreserved PT-2501 >750,000 cells per ampoule) and labeled with ^111In as in previous examples, except that the MSC were labeled, washed, and injected in Basal Stem Cell Medium (Poietics) containing 5% human serum albumin (HSA). 0.56×10^6 111In labeled, human mesenchymal stem cells (MSC) were administered via an implanted Da Vinci Microport Vascular System cannula in the external jugular vein of a two-month old, female NOD-SCID mouse in 0.21 ml of basal stem cell medium containing 5% human serum albumin (HSA). Immediately prior to administration of MSC, 11.0 mg of orosomucoid was administered i.v. in 0.2 ml.
0.56×10^6 “In-labeled, MSC were administered i.v. in 0.21 ml of basal stem cell medium containing 5% human serum albumin (HSA). Prior to administration of MSC, 0.1 ml containing 4.3 mg of ASO, followed by 0.1 ml containing 5.5 mg orosomucoid were administered i.v. The ASO, orosomucoid and MSC were administered via an implanted Da Vinci Microport Vascular system cannula in the external jugular vein of a two-month old, female NOD-SCID mouse.

[7] = test system: Caki-2 Targets; assay: 51Cr-release assay of LAK effectors against CAKI-2 with agent added; type: cell-based, human; conditions: for % 51Chromium Release from Caki-2 Targets: agent 250 μg per well, 5-day LAK, 4-hour incubation
Source text: A working hypothesis is that LAK/NK cells bind to HEPG2 via at least two receptors or recognition structures: 1) the ASGPR, which binds an asialodeterminant on the LAK/NK population and 2) the “LAK” or “NK” recognition structure for a target epitope. The first should be inhibitable by ASF; the second should not be. Binding to CAKI-2 (ASGPR−) should not be inhibited by ASF and is due to a LAK or NK recognition structure binding to the target epitope. This can be further supported by data derived from experiments (see below) in which 250 μg/well of ASF or F were added to the ^51Cr-release assay of LAK effectors against the labeled target CAKI-2.
(% SPECIFIC RELEASE was determined from quadruplicates whose raw counts per minute differed by less than 10 percent; the assay was a standard 4-hour incubation.)

Substance: Neuraminidase: Vibrio cholera neuraminidase used to treat LAK cells and generate cell surface asialodeterminants
adherence of LAK activity to HEPG2 (assayed on RAJI) after cell surface modification ([1]; 23° C for 2 hours): did not
adherence to CAKI-2 of IL-2 activated NK activity (assayed on K562) after cell surface modification ([2]; 5-day LAK, 23° C for 2 hours): promotes adherence
LAK activity (killing of RAJI) after enzyme treatment of effector cell surface [3]: enhances
LAK activity (killing of RAJI) after enzyme treatment of effector cell surface ([3]; listed as neuraminidase): significantly enhanced
IL-2 activated NK (killing K562 targets) after enzyme treatment of effector cell surface ([4]; enzyme-treated LAK cells): does not enhance

Substance: asialoorosomucoid [ASO]
migration of CD34+ cells to the liver and spleen, in words ([5]; 5.75×10^6 HSC after 3.3 mg ASO i.v., early postinfusion images): did not migrate to the liver and spleen early
organ localization of infused hematopoietic (CD34+) stem cells, in words [5]: migrated immediately to the heart
organ localization of infused hematopoietic (CD34+) stem cells, in words ([5]; listed as asialoorosomucoid): predominantly localize in the heart
% Infused Cells in Liver/Spleen ([6]; 0 hr): 63 ± 5% at 0 hr
% Infused Cells in Liver/Spleen ([6]; 1 hr): 57 ± 7% at 1 hr
organ localization of infused mesenchymal stem cells, in words ([6]; cells preceded by infusion of the protein, jugular vein, immunodeficient mice): localize in the liver

inhibition of adherence of LAK activity of the neuraminidase-treated population to HEPG2 ([1]; 23° C, 200 μg/ml, assayed on RAJI): not
Substance: fetuin [reference compound]
inhibition of adherence to HEPG2 of LAK activity (assayed on RAJI) ([1]; 23° C, 200 μg/ml): could not be inhibited
inhibition of adherence to HEPG2 of IL-2 activated NK (assayed on K562) ([1]; 23° C, with or without neuraminidase treatment, 200 μg/ml): not
inhibition of adherence to CAKI-2 of IL-2 activated NK or LAK activity ([2]; 23° C, 200 μg/ml): could not be inhibited
% 51Chromium Release from Caki-2 Targets ([7]; E:T 5:1): 16%
% 51Chromium Release from Caki-2 Targets ([7]; E:T 10:1): 27%
% 51Chromium Release from Caki-2 Targets ([7]; E:T 20:1): 42%
% 51Chromium Release from Caki-2 Targets ([7]; E:T 40:1): 58%
blocking of LAK killing of the tumor target CAKI-2, in words ([7]; preincubation of targets and addition to the assay at 250 μg per well): does not block
activity of LAK or Control preparations incubated with the protein alone versus untreated LAK ([3]; 200 μg/ml for 2 h at 40C, no monolayer): identical activity
ability of effectors (LAK or LAK/NS) to kill RAJI after preincubation with the protein ([3]; 200 μg/ml, 23° C): does not affect
ability of effectors (LAK or LAK/NS) to kill K562 after preincubation with the protein ([4]; 200 μg/ml, 23° C): does not affect
